Results published in BigSolDB 2.1.

Conditions: in water

O=C1NC(=O)c2cc([N+](=O)[O-])ccc21
Conditions | solubility (mole fraction)
278.15 K | 0.000105
283.15 K | 0.000142
288.15 K | 0.000187
293.15 K | 0.000248
298.15 K | 0.000324
303.15 K | 0.000415
308.15 K | 0.000537
313.15 K | 0.000684
318.15 K | 0.00086
323.15 K | 0.00109
